Data taken from US20100105748A1, “METHODS AND COMPOSITIONS FOR TREATMENT OF DRUG ADDICTION” (priority 2007, published 2010).
Entries after “also recorded” stand apart in the source; their conditions may differ. Counter-ions that a name gives are not always drawn.

Key:
rats = rats / rodents; cited from earlier work
mice = assay: Cocaine-induced locomotion (ambulations in activity chambers); assay type: in vivo
Protocol: Locomotor activity measurement: Experiments were conducted in an isolated behavior room between 1000 and 1600 hrs. Ambulations (consecutive beam breaks) were measured in transparent plexiglass cages (40×20×20 cm^3) placed into a rack with seven infrared photobeams spaced 5 cm apart, each end beam 5 cm from the cage wall (San Diego Instruments Inc., LaJolla, Calif.). Mice were placed in the activity chambers for 4 hr, injected with cocaine (5, 10, or 20 mg/kg i.p.; Sigma-Aldrich, St Louis, Mo.), and ambulations were recorded for an additional 2 hr. Data were analyzed by ANOVA followed by Bonferroni post-hoc tests. For the antagonist studies, saline, the 5-HT1A antagonist WAY100635 (0.03 mg/kg), the 5-HT2 antagonist ketanserin (0.3 mg/kg), the D1 antagonist SCH23390 (0.03 mg/kg), or the D2 antagonist eticlopride were injected i.p. 30 min prior to cocaine (20 mg/kg). […] All drugs were purchased from Sigma-Aldrich (St Louis, Mo.).
Mice were implanted with minipumps for delivering either vehicle (50% DMSO, 0.9% NaCl or nepicastat (10 or 50 mg/kg/d). 3 weeks later, the mice were put in activity chambers, allowed to acclimate for 4 hrs, then injected with cocaine (10 mg/kg, i.p.) and ambulations measured for 2 additional hours, as shown in FIG. 8 (N=6 per group).
Two hours later, the mice were put in activity chambers, allowed to acclimate for 4 hrs, injected with cocaine (20 mg/kg, i.p.) and ambulations measured for 2 additional hours. (FIG. 9) (N=8 per group).

Dbh +/- and Dbh -/- mice = assay: Elevated plus maze (EPM), cocaine-induced anxiety, Dbh mice; assay type: in vivo; details: for percent open arm time in EPM after cocaine: disulfuram 3x200 mg/kg i.p. two hours apart, cocaine 10 mg/kg i.p. 20 min before test; for percent open arm time in EPM after cocaine (cocaine-induced anxiety): antagonist i.p. 10 min prior to cocaine 10 mg/kg i.p., propranolol 5, prazosin 0.5, yohimbine 2.5 mg/kg; for percent open time in EPM, antagonist alone: same doses, no cocaine, tested 20 minutes later, vs saline-treated
Source text: Male and female Dbh +/− and −/− mice (aged 2 to 5 months) were individually housed on a reversed light cycle (lights on at 19:00, lights off at 7:00), and were allowed a minimum of two weeks to habituate to the new lighting conditions after moving from normal light cycle (lights on at 7:00, lights off at 19:00). Food and water were available ad libitum throughout the course of the study. Data from male and female mice were combined, since there were no detectable gender differences. Dbh mice were generated as described (15) and maintained on a mixed C57Bl6/J and 129SvEv background. Dbh +/− mice were used as controls, because they have normal brain catecholamine levels and are behaviorally identical to wild-type (Dbh +/+) mice (14-16). Three-month old male and female C57BL6/J mice (Jackson Labs, Bar Harbor, […].) were also used to generalize the findings from these experiments to a different strain of wild-type mouse. Housing, handling, and testing conditions for these animals were identical to those used in experiments with Dbh +/− mice.
Behavioral testing The EPM apparatus consisted of two open arms and two enclosed arms arranged in a plus orientation. The arms were elevated 30 inches above the floor, with each arm projecting 12 inches from the center. Because rodents naturally prefer dark, enclosed compartments, a greater willingness to explore the open, well-lit arms is believed to represent a decrease in the animal's anxiety. This interpretation has been validated by the efficacy of known anxiolytic and anxiogenic treatments in this paradigm (Paine et al., (2002) Behavioural Pharmacol. 13: […]; Gorman & Dunn (1993) Pharmacol. Biochem. & Behavior 45: 1-7; Pellow et al., (1985) J. Neurosci. Methods 14: 149-167; Johnston & File (1988) Pharmacol. Biochem. & Behavior 32: 151-156).
In all experiments, cocaine was injected 20 minutes prior to behavioral testing as described by Yang and colleagues (Yang et al., (1992) Pharmacol. Biochem. & Behavior 41: 643-650). To begin each test, mice were placed in the EPM facing one of the open arms and allowed to freely explore the apparatus for five minutes, during which time their behavior was videotaped. Videotapes were later scored by an observer who was blind to genotype and treatment group. The measure used for analysis was the percentage of time spent exploring the open arms, which was calculated by dividing the time spent in the open arms by the combined time spent in open and closed arms. Because some drug treatments and genetic manipulations alter overall locomotor activity, it was important to use this percentage measurement as the dependent variable for analysis (Pellow et al., (1985) J. Neurosci. Methods 14: 149-167).
Entry into an arm of the plus maze was defined as the animal placing all four paws in that particular compartment of the apparatus. All tests were run during the dark cycle, between 14:00 and 18:00. Mice were excluded from data analysis for any of the following reasons: if they jumped or fell off the maze after test had begun, if they had […] a seizure while on the testing apparatus, or if their open arm time was detected as an outlier using Grubb's test. Of 253 total mice tested, 10 were excluded from data analysis. Data were analyzed using independent samples t-tests, one-way ANOVA followed by Dunnett's post-hoc tests, or two-way ANOVA followed by Bonferroni post-hoc tests using Prism 4.0 for Macintosh. […]
This dosing regimen is known to decrease NE by ˜70% in the mouse brain (Bourdelat-Parks et al., (2005) Psychopharmacol. 183(1): 72-80). Mice received cocaine (10 mg/kg, i.p. at 10 ml/kg, dissolved in 0.9% saline) or saline two hours after the final pretreatment injection, and behavioral testing took place 20 minutes later, as described above. […]

DBH [1] = target: T1, DBH (Homo sapiens, UniProt P09172); details: cited from earlier work
T1 sequence (P09172 1-617): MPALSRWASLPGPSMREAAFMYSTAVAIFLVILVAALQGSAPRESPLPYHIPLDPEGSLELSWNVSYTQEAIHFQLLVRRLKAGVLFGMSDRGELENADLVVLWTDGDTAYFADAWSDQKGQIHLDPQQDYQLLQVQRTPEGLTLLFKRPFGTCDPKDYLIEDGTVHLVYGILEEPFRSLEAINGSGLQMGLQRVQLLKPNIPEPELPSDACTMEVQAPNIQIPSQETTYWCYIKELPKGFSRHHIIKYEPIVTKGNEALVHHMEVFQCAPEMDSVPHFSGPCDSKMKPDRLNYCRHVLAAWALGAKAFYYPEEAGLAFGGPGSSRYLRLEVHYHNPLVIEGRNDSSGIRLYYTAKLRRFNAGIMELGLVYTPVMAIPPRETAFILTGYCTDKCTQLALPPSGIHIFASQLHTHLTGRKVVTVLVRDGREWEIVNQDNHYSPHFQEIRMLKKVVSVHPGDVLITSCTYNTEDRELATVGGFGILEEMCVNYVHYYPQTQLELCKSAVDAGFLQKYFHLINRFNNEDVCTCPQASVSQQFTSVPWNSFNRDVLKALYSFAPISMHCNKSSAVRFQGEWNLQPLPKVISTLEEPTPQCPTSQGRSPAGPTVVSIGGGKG

DBH [2] = target: T2, DBH (Mus musculus, UniProt Q64237); details: three injections of 200 mg/kg i.p. spaced two hours apart; cited from earlier work
T2 construct: host or cells: peripheral and central tissues of animals, in vivo
T2 sequence (Q64237 1-622): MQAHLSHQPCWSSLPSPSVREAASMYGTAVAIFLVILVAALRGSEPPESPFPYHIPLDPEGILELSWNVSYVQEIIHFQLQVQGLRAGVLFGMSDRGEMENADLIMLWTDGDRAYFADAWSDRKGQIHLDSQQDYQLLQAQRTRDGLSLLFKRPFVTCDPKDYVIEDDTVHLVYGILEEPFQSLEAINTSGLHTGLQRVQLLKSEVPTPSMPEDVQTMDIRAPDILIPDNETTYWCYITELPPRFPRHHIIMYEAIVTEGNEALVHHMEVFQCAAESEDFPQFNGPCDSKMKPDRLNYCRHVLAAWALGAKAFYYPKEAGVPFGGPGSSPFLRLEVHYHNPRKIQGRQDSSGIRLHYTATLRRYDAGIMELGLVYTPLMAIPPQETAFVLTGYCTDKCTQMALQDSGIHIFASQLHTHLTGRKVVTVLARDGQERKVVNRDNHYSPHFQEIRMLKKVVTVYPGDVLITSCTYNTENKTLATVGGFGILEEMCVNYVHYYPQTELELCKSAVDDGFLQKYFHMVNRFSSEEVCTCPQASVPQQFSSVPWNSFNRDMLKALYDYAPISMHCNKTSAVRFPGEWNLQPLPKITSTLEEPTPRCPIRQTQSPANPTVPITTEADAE

DBH [3] = details: animals; cited from earlier work
animal models = details: cited from earlier work
DBH [4] = target: T1, DBH; parameters: host or cells: human subjects, in vivo; details: humans; cited from earlier work
C57BL6/J wild type mice = assay: Elevated plus maze (EPM), cocaine-induced anxiety, wild type C57BL6/J mice; assay type: in vivo
Protocol: Behavioral testing The EPM apparatus consisted of two open arms and two enclosed arms arranged in a plus orientation. The arms were elevated 30 inches above the floor, with each arm projecting 12 inches from the center. Because rodents naturally prefer dark, enclosed compartments, a greater willingness to explore the open, well-lit arms is believed to represent a decrease in the animal's anxiety. […]
In all experiments, cocaine was injected 20 minutes prior to behavioral testing as described by Yang and colleagues (Yang et al., (1992) Pharmacol. Biochem. & Behavior 41: 643-650). […] Videotapes were later scored by an observer who was blind to genotype and treatment group. The measure used for analysis was the percentage of time spent exploring the open arms, which was calculated by dividing the time spent in the open arms by the combined time spent in open and closed arms. […]
Entry into an arm of the plus maze was defined as the animal placing all four paws in that particular compartment of the apparatus. […] Mice were excluded from data analysis for any of the following reasons: if they jumped or fell off the maze after test had begun, if they had […] a seizure while on the testing apparatus, or if their open arm time was detected as an outlier using Grubb's test. […]

S=C(Nc1ccccc1)Nc1nccs1 [U-14,624]
reinstatement of amphetamine self-administration (rats): block

CCN(CC)C(=S)SSC(=S)N(CC)CC [disulfuram, tetraethylthiuram]
locomotion induced by cocaine (mice; disulfuram via osmotic minipump 50 mg/kg/day for 2 to 3 weeks, cocaine 10 mg/kg, cocaine-naive animals): decreased | percent open arm time in EPM after cocaine (Dbh +/- and Dbh -/- mice): attenuates cocaine-induced anxiety | percent open arm time in EPM after cocaine (Dbh +/- and Dbh -/- mice; listed as Disulfuram): abolished the ability of cocaine to reduce open arm exploration time; also recorded: significantly increased level of open arm exploration | percent open arm time in EPM, saline instead of cocaine (Dbh +/- and Dbh -/- mice; disulfuram 3x200 mg/kg i.p., saline prior to testing): no effect | IC50 for DBH (DBH [1]): low micromolar range | decrease of NE in the mouse brain (DBH [2]): ~70% | dopamine (DA) in peripheral and central tissues (DBH [3]): increase dopamine (DA) | norepinepherine (NE) in peripheral and central tissues (DBH [3]): decrease norepinepherine (NE) | reinstatement of amphetamine self-administration (rats): attenuates; also recorded: block | cocaine sensitization (animal models): enhances cocaine sensitization | locomotor response to acute administration of amphetamine (animal models): decreases | locomotor response to acute administration of cocaine (animal models): decreases | NE and its metabolites in urine, blood, and cerebrospinal fluid (DBH [4]): decreases

NCc1c[nH]c(=S)n1[C@H]1CCc2c(F)cc(F)cc2C1 [nepicastat, S-5-amino methyl-1-(5,7-difluoro-1,2,3,4-tetrahydronapthalyl)-1,3-dihydroimidazole-2-thione hydrochloride]
locomotion induced by cocaine (mice; prolonged (3 weeks) minipump treatment with 10 or 50 mg/kg/day, cocaine 10 mg/kg i.p., FIG. 8): significantly increased | cocaine-induced locomotion (mice; single acute dose 50 mg/kg i.p., cocaine 20 mg/kg i.p., FIG. 9, hydrochloride): did not significantly affect; also recorded: does not significantly affect

COc1cc2nc(N3CCN(C(=O)c4ccco4)CC3)nc(N)c2cc1OC [prazosin]
percent open arm time in EPM after cocaine (cocaine-induced anxiety) (Dbh +/- and Dbh -/- mice): preserved; also recorded: did not | percent open time in EPM, antagonist alone (Dbh +/- and Dbh -/- mice): no significant effect

CC(C)NCC(O)COc1cccc2ccccc12 (stereo not drawn) [propranolol]
percent open arm time in EPM after cocaine (cocaine-induced anxiety) (Dbh +/- and Dbh -/- mice): abolished; also recorded: differed significantly from the control group; also recorded: attenuates cocaine-induced anxiety | percent open time in EPM, antagonist alone (Dbh +/- and Dbh -/- mice): no significant effect | percent open arm time in EPM after cocaine (cocaine-induced anxiety) (C57BL6/J wild type mice; propranolol 5 mg/kg i.p. 10 min prior to cocaine 20 mg/kg i.p.): blocked; also recorded: attenuates cocaine-induced anxiety | baseline EPM performance (C57BL6/J wild type mice; propranolol 5 mg/kg i.p., saline instead of cocaine): no effect

COC(=O)[C@@H]1[C@H]2C[C@H]3c4[nH]c5ccccc5c4CCN3C[C@@H]2CC[C@@H]1O [yohimbine]
percent open arm time in EPM after cocaine (cocaine-induced anxiety) (Dbh +/- and Dbh -/- mice): preserved; also recorded: did not | percent open time in EPM, antagonist alone (Dbh +/- and Dbh -/- mice): no significant effect
